Reference: patent US5013734A, “Novel esters of phenylalkanoic acid” (Ono Pharmaceutical Co., Ltd., priority 1989, dated 1991)
Counter-ions that a name gives are not always drawn.

Columns and labels:
[1] = acute toxicity (LD50), intravenous, mice; details: mouse, in vivo; intravenous administration in mice
Text: On the other hand, it was confirmed that the toxicity of the compounds of the present invention was very low. […] Therefore, the compounds of the present invention may be considered to be sufficiently safe and suitable for pharmaceutical use.

β-receptor (trachea) = biological target: T1, β-receptor (trachea) (Cavia porcellus, UniProt Q8K4Z4); experiment: Cardio selectivity of β-receptor blocking effect in vitro: isolated trachea, isoproterenol concentration-response; type: cell-based, guinea pig; details: against isoproterenol (10^-10 M to 10^-4 M), read-out: pA2 value trachea (converted)
T1 construct: Trachea was cut into zigzag strip and connected to a force transducer; from tissue; host or cells: isolated guinea pig tracheal zigzag strip
T1 sequence (Q8K4Z4 whole entry): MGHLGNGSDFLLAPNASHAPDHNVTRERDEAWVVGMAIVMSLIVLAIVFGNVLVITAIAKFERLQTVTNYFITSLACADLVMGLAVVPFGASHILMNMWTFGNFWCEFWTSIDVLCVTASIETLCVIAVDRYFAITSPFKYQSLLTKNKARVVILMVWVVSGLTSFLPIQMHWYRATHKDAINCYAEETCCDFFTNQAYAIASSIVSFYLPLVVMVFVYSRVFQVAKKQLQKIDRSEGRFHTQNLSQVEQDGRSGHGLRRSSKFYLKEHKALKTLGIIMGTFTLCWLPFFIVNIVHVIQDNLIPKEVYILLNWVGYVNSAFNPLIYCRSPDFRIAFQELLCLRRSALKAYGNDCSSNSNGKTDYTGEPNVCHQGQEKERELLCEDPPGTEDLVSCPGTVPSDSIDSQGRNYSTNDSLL
Text: Concentration-response curves to isoproterenol were then obtained.

β1 -receptor = experiment: β-blocking activity in vivo: inhibition of isoproterenol-induced tachycardia in anesthetized dogs; details: for Inhibitory effect after administration of compounds of the present invention (inhibition of isoproterenol-induced tachycardia), 10 min: 10 min (during infusion); for Inhibitory effect after administration of compounds of the present invention (inhibition of isoproterenol-induced tachycardia), 10 min / Inhibitory effect after administration of compounds of the present invention (inhibition of isoproterenol-induced tachycardia), 20 min / Inhibitory effect after administration of compounds of the present invention (inhibition of isoproterenol-induced tachycardia), 30 min / Inhibitory effect after administration of compounds of the present invention (inhibition of isoproterenol-induced tachycardia), 35 min / Inhibitory effect after administration of compounds of the present invention (inhibition of isoproterenol-induced tachycardia), 40 min / Inhibitory effect after administration of compounds of the present invention (inhibition of isoproterenol-induced tachycardia), 50 min / Inhibitory effect after administration of compounds of the present invention (inhibition of isoproterenol-induced tachycardia), 60 min: 10 μg/kg/min iv infusion for 30 minutes; for Inhibitory effect after administration of compounds of the present invention (inhibition of isoproterenol-induced tachycardia), 20 min: 20 min (during infusion); for Inhibitory effect after administration of compounds of the present invention (inhibition of isoproterenol-induced tachycardia), 30 min: 30 min (end of infusion); for Inhibitory effect after administration of compounds of the present invention (inhibition of isoproterenol-induced tachycardia), 35 min: 35 min (after infusion); for Inhibitory effect after administration of compounds of the present invention (inhibition of isoproterenol-induced tachycardia), 40 min: 40 min (after infusion); for Inhibitory effect after administration of compounds of the present invention (inhibition of isoproterenol-induced tachycardia), 50 min: 50 min (after infusion); for Inhibitory effect after administration of compounds of the present invention (inhibition of isoproterenol-induced tachycardia), 60 min: 60 min (after infusion); for Duration of action: time required to decrease the inhibition percent 30 minutes after administration to half, 10 μg/kg/min iv infusion
Procedure: β-blocking activity of the compounds of the present invention in vivo
Dogs were anesthetized with sodium barbital (300 mg/kg, ip). A femoral artery and both femoral veins were cannulated. Blood pressure was measured with a pressure transducer. Heart rate was measured from the blood pressure signal using a cardiotachometer. The β-blocking activity was assessed by the inhibition of isoproterenol-induced tachycardia. Isoproterenol was administered intravenously (0.1~0.3 μg/kg) at 10 minutes intervals. When a regular tachycardia induced by isoproterenol was given, the compound of the present invention was administered (10 μg/kg/min, iv infusion) for 30 minutes. Isoproterenol was given repeatedly during and following infusion of a test compound. The inhibitory effects of the compounds of the present invention on tachycardia were calculated.
Inhibition (%)=((ΔRO-ΔRa)/ΔRO)×100
ΔRO: the increment of heart rate by isoproterenol before infusion of the compound of the present invention
ΔRa: the increment of heart rate by isoproterenol during and after infusion of the compound of the present invention

Row | SMILES | LD50 [1] | Kb (β-receptor (trachea)) | Inhibitory effect after administration of compounds of the present invention (inhibition of isoproterenol-induced tachycardia), 10 min (β1 -receptor) | Inhibitory effect after administration of compounds of the present invention (inhibition of isoproterenol-induced tachycardia), 20 min (β1 -receptor) | Inhibitory effect after administration of compounds of the present invention (inhibition of isoproterenol-induced tachycardia), 30 min (β1 -receptor) | Inhibitory effect after administration of compounds of the present invention (inhibition of isoproterenol-induced tachycardia), 35 min (β1 -receptor) | Inhibitory effect after administration of compounds of the present invention (inhibition of isoproterenol-induced tachycardia), 40 min (β1 -receptor) | Inhibitory effect after administration of compounds of the present invention (inhibition of isoproterenol-induced tachycardia), 50 min (β1 -receptor) | Inhibitory effect after administration of compounds of the present invention (inhibition of isoproterenol-induced tachycardia), 60 min (β1 -receptor) | Duration of action (β1 -receptor)
1 | CC1(C)OC[C@@H](COC(=O)CCc2ccc(OC[C@@H](O)CNCCNC(=O)N3CCOCC3)cc2)O1 [2 (b), (2,2-dimethyl-1,3-dioxolan-4S-yl)methyl 3-[4-[2S-hydroxy-3-(2-morpholinocarbonylaminoethyl)aminopropoxy]phenyl]propionate 1/2 oxalate] | 290 mg/kg | 66.1 µM |  |  |  |  |  |  |  | 
2 | O=C(CCc1ccc(OCC(O)CNCCNC(=O)N2CCOCC2)cc1)OCC1COC2(CCCC2)O1 (stereo not shown) [3 (c), (1,4-dioxaspiro[4,4]-nonan-2-yl)methyl 3-[4-[2-hydroxy-3-(2-morpholinocarbonylaminoethyl)aminopropoxy]phenyl]-ropionate 1/2 oxalate] |  |  | 38.3% | 46.9% | 40.4% | 37.0% | 20.1% | -2.6% | -1.3% | 10 min
3 | CC1(C)OCC(COC(=O)CCc2ccc(OC[C@@H](O)CNCCNC(=O)N3CCOCC3)c(F)c2)O1 (stereo partly drawn) [3 (e), (2,2-dimethyl-1,3-dioxolan-4-yl)methyl 3-[3-fluoro-4-[2S-hydroxy-3-(2-morpholinocarbonylaminoethyl)aminopropoxy]phenyl]propionate 1/2 oxalate] |  |  | 49.6% | 58.5% | 63.8% | 45.4% | 32.7% | 10.8% | -3.3% | 10 min
4 | CC1(C)OCC(COC(=O)CCc2ccc(OC[C@@H](O)CNCCNC(=O)N3CCOCC3)c(C#N)c2)O1 (stereo partly drawn) [3 (j), (2,2-dimethyl-1,3-dioxolan-4-yl)methyl 3-[3-cyano-4-[2S-hydroxy-3-(2-morpholinocarbonylaminoethyl)aminopropoxy]phenyl]propionate 1/2 oxalate] |  |  | 75.7% | 69.0% | 68.7% | 48.9% | 38.3% | 19.3% | 13.6% | 12 min
5 | CN1CCN(C(=O)NCCNC[C@H](O)COc2ccc(CCC(=O)OCC3COC(C)(C)O3)cc2)CC1 (stereo partly drawn) [3 (l), (2,2-dimethyl-1,3-dioxolan-4-yl)methyl 3-[4-[2S-hydroxy-3-[2-(4-methylpiperazin-1-yl)carbonylaminoethyl]aminopropoxy]phenyl]propionate 1/2 oxalate] |  |  | 60.2% | 58.6% | 59.8% | 55.6% | 41.8% | 19.6% | 16.3% | 15 min
